Source: patent US4361563A, “Pyridazinone-substituted benzimidazoles and salts” (priority 1978, dated 1982)
Counter-ions that a name gives are not always drawn.

Assays:
thrombocyte aggregation = test: Determination of the thrombocyte aggregation according to Born and Cross (collagen-provoked, platelet-rich plasma); type: cell-based, healthy test persons; conditions: collagen-induced aggregation
Procedure: TEST 1. DETERMINATION OF THE THROMBOCYTE AGGREGATION ACCORDING TO BORN AND CROSS [J. PHYSIOL. 170, 397 (1964)].
The thrombocyte aggregation was measured in platelet-rich plasma of healthy test persons. The decrease of the optical density was photometrically measured and recorded after addition of commercial collagen (Sigma, St. Louis, Mo., USA) which contained […] of collagen-fibrils per ml. The velocity of aggregation (Vmax) was determined by the angle of inclination of the density curve. The point of the curve, where the most light was transmitted, served for the determination of the optical density (o.d.). To provoke maximum aggregation, approximately 0.01 ml of the collagen solution was added to 1 ml of platelet-rich plasma.

white mice = test: Acute toxicity, single oral dose; type: in vivo; conditions: white mice, 14 days observation
Procedure: (§1) The acute toxicity of the substances tested was determined in white mice after oral adminstration of a single dose (observation time: 14 days).

[1] = Acute toxicity, single oral dose; type: in vivo; conditions: mouse, in vivo, po; read-out: Acute toxicity mg/kg p.o.
Procedure: as §1

cats = test: Determination of the hypotensive and positive inotropic activity in the cat; type: in vivo; conditions: for change in vivo at 0.1 mg/kg / change in vivo at 0.5 mg/kg / change in vivo at 2 mg/kg: Felis catus, iv, read-out: Change of dp/dt in %
Procedure: TEST 2. DETERMINATION OF THE HYPOTENSIVE AND POSITIVE INOTROPIC ACTIVITY IN THE CAT
The tests were performed in cats which were anesthetized with pentobarbital sodium (40 mg/kg i.p.). The animals breathed spontaneously. The arterial blood pressure was measured in the aorta abdominalis by a Statham pressure transducer (P 23 Dc). The positive inotropic effect was determined by measuring the pressure in the left […] by means of a catheter tipmanometer (Millar PC 350 A). This contractility parameter dp/dtmax was registered by means of an analog differentiating circuit. The substances under test were injected into a vena femoralis. Physiological sodium […] solution or polydiol 200 was used as solvent.

[2] = 0.5 mg/kg i.v., initial phase before decrease

SMILES | EC50 (thrombocyte aggregation) | LD50 at 336 h [1] | Change of blood pressure, first value of the pair (before the slash) (cats; 0.1 mg/kg i.v.) | Change of blood pressure, second value of the pair (after the slash) (cats; 0.1 mg/kg i.v.) | Duration of action (cats; 0.1 mg/kg i.v.) | Change of blood pressure, first value of the pair (before the slash) (cats; 0.5 mg/kg i.v.) | Change of blood pressure, second value of the pair (after the slash) (cats; 0.5 mg/kg i.v.) | Duration of action (cats; 0.5 mg/kg i.v.) | change in vivo at 0.1 mg/kg (cats; 0.1 mg/kg i.v.) | change in vivo at 0.5 mg/kg (cats; 0.5 mg/kg i.v.) | other results
CC1CC(=O)NN=C1c1ccc2[nH]c(C(F)(F)F)nc2c1 (stereo not shown) [B, 2-Trifluoromethyl-5(6)-(5-methyl-3-oxo-4,5-dihydro-2H-6-pyridazinyl)-benzimidazole] | 100 nM | > 450 mg/kg | -65 mgm Hg | -35 mgm Hg | > 55 min | -49 mgm Hg | -43 mgm Hg | > 99 min | 91% | 143% | animals died (white mice; 450 mg/kg p.o.): 0 out of 6
CC1CC(=O)NN=C1c1ccc2[nH]cnc2c1 (stereo not shown) [C, 5(6)-(5-Methyl-3-oxo-4,5-dihydro-2H-6-pyridazinyl)-benzimidazole] | 120 nM |  |  |  |  | -55 mgm Hg | -48 mgm Hg | > 172 min |  | 159% | 
Cc1nc2cc(C3=NNC(=O)CC3C)ccc2[nH]1 (stereo not shown) [Compound A, 2-Methyl-5(6)-(5-methyl-3-oxo-4,5-dihydro-2H-6-pyridazinyl)-benzimidazole] | 10 nM | > 600 mg/kg | -26 mgm Hg | -24 mgm Hg | > 24 min | -35 mgm Hg | -42 mgm Hg | > 187 min | 53% | 116% | animals died (white mice; 600 mg/kg p.o.): 1 out of 3
COc1ccc(-c2nc3cc(C4=NNC(=O)CC4C)ccc3[nH]2)c(OC)c1 (stereo not shown) [Compound E, 2-(2,4-Dimethoxy-phenyl)-5(6)-(5-methyl-3-oxo-4,5-dihydro-2H-6-pyridazinyl)-benzimidazole] |  |  |  |  |  | -28 mgm Hg | -33 mgm Hg | > 55 min |  | 89% | 
CC1CC(=O)NN=C1c1ccc2[nH]c(-c3ccccc3F)nc2c1 (stereo not shown) [D, 2-(2-Fluoro-phenyl)-5(6)-(5-methyl-3-oxo-4,5-dihydro-2H-6-pyridazinyl)-benzimidazole] |  | > 600 mg/kg |  |  |  |  | -10 mgm Hg | > 69 min |  | 107% | animals died (white mice; 600 mg/kg p.o.): 0 out of 6
CSc1nc2cc(C3=NNC(=O)CC3C)ccc2[nH]1 (stereo not shown) [F, 2-Methylmercapto-5(6)-(5-methyl-3-oxo-4,5-dihydro-2H-6-pyridazinyl)-benzimidazole] |  |  | -36 mgm Hg | -40 mgm Hg | > 28 min | -48 mgm Hg | -66 mgm Hg | > 32 min | 51% | 50% | 
COc1ccc(-c2nc3ccc(C4=NNC(=O)CC4C)cc3[nH]2)cc1 (stereo not shown) [G, 2-(4-Methoxy-phenyl)-5(6)-(5-methyl-3-oxo-4,5-dihydro-2H-6-pyridazinyl)-benzimidazole] | 80 nM | ~600 mg/kg |  | 0 mgm Hg | > 26 min | -18 mgm Hg | -18 mgm Hg | > 72 min | 23% | 64% | animals died (white mice; 600 mg/kg p.o.): 3 out of 6
Cc1ccc(-c2nc3cc(C4=NNC(=O)CC4C)ccc3[nH]2)cc1 (stereo not shown) [H, 2-(4-Methyl-phenyl)-5(6)-(5-methyl-3-oxo-4,5-dihydro-2H-6-pyridazinyl)-benzimidazole] |  | > 600 mg/kg |  |  |  | -10 mgm Hg | -10 mgm Hg | > 69 min |  | 118% | animals died (white mice; 600 mg/kg p.o.): 0 out of 6; duration of decrease of blood pressure (cats; 0.5 mg/kg i.v., decrease after 1 minute): > 50 min; initial increase of blood pressure, first value of the pair (cats; [2]): 33 mgm Hg; initial increase of blood pressure, second value of the pair (cats; [2]): 18 mgm Hg
CCCC(C)c1nc2cc(C3=NNC(=O)CC3C)ccc2[nH]1 (stereo not shown) [I, 2-(2-Pentyl)-5(6)-(5-methyl-3-oxo-4,5-dihydro-2H-6-pyridazinyl)-benzimidazole hydrochloride] |  |  | -10 mgm Hg | -13 mgm Hg | > 53 min | -28 mgm Hg | -33 mgm Hg | > 52 min | 83% | 103% | 
COc1ccc(-c2nc3cc(C4=NNC(=O)CC4C)ccc3n2C)cc1 (stereo not shown) [K, 1-Methyl-2-(4-methoxy-phenyl)-5-(5-methyl-3-oxo-4,5-dihydro-2H-6-pyridazinyl)-benzimidazole] |  |  |  |  |  | -28 mgm Hg | -34 mgm Hg | > 40 min |  | 50% | 
Cc1nc2cc(C3=NNC(=O)CC3C)ccc2n1CCC(C)C (stereo not shown) [L, 1-(3-Methyl-butyl)-2-methyl-5-(5-methyl-3-oxo-4,5-dihydro-2H-6-pyridazinyl)-benzimidazole] | 50 nM |  |  |  |  |  |  |  |  |  | 
Cc1nc2cc(C3=NNC(=O)CC3C)ccc2n1Cc1ccccc1 (stereo not shown) [M, 1-Benzyl-2-methyl-5-(5-methyl-3-oxo-4,5-dihydro-2H-6-pyridazinyl)-benzimidazole] |  |  | -37 mgm Hg | -33 mgm Hg | > 62 min | -57 mgm Hg | -48 mgm Hg | > 110 min | 123% | 106% | 
Cc1nc2cc(C3=NNC(=O)C(C)C3)ccc2[nH]1 (stereo not shown) [N, 2-Methyl-5(6)-(4-methyl-3-oxo-4,5-dihydro-2H-6-pyridazinyl)-benzimidazole, reference compound] | 1000 nM | > 250 mg/kg |  |  |  |  | 3 mgm Hg | 22 min |  | 23% | animals died (white mice; 250 mg/kg p.o.): 0 out of 10
COc1ccc(-c2nc3cc(C4=NNC(=O)C(C)C4)ccc3[nH]2)c(OC)c1 (stereo not shown) [O, 2-(2,4-Dimethoxy-phenyl)-5(6)-(4-methyl-3-oxo-4,5-dihydro-2H-6-pyridazinyl)-benzimidazole, reference compound] |  |  |  |  |  | +15 mgm Hg | 6 mgm Hg | 2 min |  | 10% | 
COc1ccc(-c2nc3cc(C4=NNC(=O)C(C)C4)ccc3[nH]2)cc1 (stereo not shown) [P, 2-(4-Methoxy-phenyl)-5(6)-(4-methyl-3-oxo-4,5-dihydro-2H-6-pyridazinyl)-benzimidazole, reference compound] |  |  |  |  |  | -10 mgm Hg | -10 mgm Hg | 1 min |  | 9% | Change of blood pressure, first value of the pair (before the slash) (cats; 2.0 mg/kg i.v.): -35 mgm Hg; Change of blood pressure, second value of the pair (after the slash) (cats; 2.0 mg/kg i.v.): -35 mgm Hg; Duration of action (cats; 2.0 mg/kg i.v.): 1 min; change in vivo at 2 mg/kg (cats; 2.0 mg/kg i.v.): 5%
COc1ccc(-c2nc3cc(C4=NN(C)C(=O)C(C)C4)ccc3[nH]2)cc1 (stereo not shown) [Q, 2-(4-Methoxy-phenyl)-5(6)-(2,4-dimethyl-3-oxo-4,5-dihydro-2H-6-pyridazinyl)-benzimidazole, reference compound] |  |  |  |  |  | -12 mgm Hg | -12 mgm Hg | 11 min |  | -16% | Change of blood pressure, first value of the pair (before the slash) (cats; 2.0 mg/kg i.v.): -40 mgm Hg; Duration of action (cats; 2.0 mg/kg i.v.): 3 min; change in vivo at 2 mg/kg (cats; 2.0 mg/kg i.v.): -26%
